Values joined by “and” are separate entries in the source; they are usually repeats but may differ in a detail not shown here. Equal values may be shown once. Marks after values point to notes of the source that are not given here.
Legend:
[1] = system: Nigrostriatal-lesion-induced Rotational Behavior; test: Nigrostriatal-lesion-induced rotational behavior following amphetamine administration; assay type: in vivo, rats; conditions: for % DECREASE ROTATIONS (relative to Vehicle+Amphetamine): nigrostriatal-lesioned rats, 15 min before amphetamine SC
Protocol: Table 3, below, indicates the changes in rotational behavior in nigrostriatal-lesioned rats treated with the compound of the invention and the psychostimulant amphetamine. Drug 1 was administered 15 minutes before amphetamine, and 10 minutes post-amphetamine, the animals were placed into the rotometer for 30 or 60 minutes. “% decrease rotations” indicates the percentage decrease in total rotations relative to the Vehicle+Amphetamine group. ⋄ indicates significant difference (P≦0.05) relative to Vehicle+Amphetamine treated animals. * indicates significant difference (P+0.05) relative to Vehicle+Vehicle treated animals.
Amphetamine-induced rotational behavior. Pre-Apomorphine-screened (rotated) rats (with lesions ≧95% DA cell loss) were purchased from Charles Rivers Laboratories. Animals were given ˜4 days to acclimate prior to testing. All animals weighted 250-300 g at the beginning of the study. Animals were treated with various combinations of vehicle or the compound of the invention and amphetamine.
Vehicle or the compound of the invention was administered (p.o.) 15 minutes before amphetamine (2 mg/kg s.c.). Rotational behavior was assessed 15 minutes post-amphetamine administration and was monitored for 60 minutes using a Rotometer system from San Diego Instruments (San Diego, Calif.).
For i.p. administration, the compounds are formulated in H2O with 0.5% DMSO and given in a volume of 1 ml/kg body weight by injecting into the intraperitoneal cavity. For p.o. administration, the compounds are formulated in H2O with 0.5% DMSO and given in a volume of 2 ml/kg body weight using a 25-gauge, 1.5 inch gavage needle that is slowly inserted through the esophagus into the stomach.

[2] = system: Amphetamine-induced Hyperlocomotion; test: Amphetamine-induced hyperlocomotion in the open field; assay type: in vivo, mice; conditions: for % DECREASE ACTIVITY REL TO VEH + AMPH / TOTAL ACTIVITY POST-AMPHETAMINE (AUC): mice, 15 min before amphetamine SC
Protocol: Drug 1 was administered 30 minutes after the animal was placed in the open field. Drug 2 was administered subcutaneously (SC) at 45 minutes after the animal was placed in the open field (15 minutes after drug 1). AUC indicates the total amount of locomotor activity after administration of drug 2. “% decrease activity” indicates the percentage decrease in total activity relative to the Vehicle+Amphetamine group. ⋄ significant difference (P<0.05) relative to Vehicle+ Amphetamine treated animals. * indicates significant difference (P ≦0.05) relative to Vehicle+Vehicle treated animals. Amphetamine- or cocaine-induced hyperactivity. Mice were placed in an open field apparatus (FlexField, San Diego Instruments, San Diego, Calif.). […] Total activity over each 5 minute bin (21 total bins) was added to establish activity curve over the 105 minute testing. For i.p. administration, the compounds are formulated in H2O with 0.5% DMSO and given in a volume of 1 ml/kg body weight by injecting into the intraperitoneal cavity. For p.o. administration, the compounds are formulated in H2O with 0.5% DMSO and given in a volume of 2 ml/kg body weight using a 25-gauge, 1.5 inch gavage needle that is slowly inserted through the esophagus into the stomach.

[3] = system: Cocaine-induced Hyperlocomotion; test: Cocaine-induced hyperlocomotion in the open field; assay type: in vivo, mice; conditions: for % DECREASE ACTIVITY (relative to Vehicle+Cocaine) / TOTAL ACTIVITY POST-COCAINE (AUC): mice, 15 min before cocaine SC
Protocol: Drug 1 was administered 30 minutes after the animal was placed in the open field. Drug 2 was administered subcutaneously (SC) at 45 minutes after the animal was placed in the open field (15 minutes after drug 1). AUC indicates the total amount of locomotor activity after administration of drug 2. “% decrease activity” indicates the percentage decrease in total activity relative to the Vehicle+Cocaine group. ⋄ indicates significant difference (P≦0.05) relative to Vehicle+Cocaine treated animals. * indicates significant difference (P≦0.05) relative to Vehicle+Vehicle treated animals. Amphetamine- or cocaine-induced hyperactivity. Mice were placed in an open field apparatus (FlexField, San Diego Instruments, San Diego, Calif.). […] Total activity over each 5 minute bin (21 total bins) was added to establish activity curve over the 105 minute testing. For i.p. administration, the compounds are formulated in H2O with 0.5% DMSO and given in a volume of 1 ml/kg body weight by injecting into the intraperitoneal cavity. For p.o. administration, the compounds are formulated in H2O with 0.5% DMSO and given in a volume of 2 ml/kg body weight using a 25-gauge, 1.5 inch gavage needle that is slowly inserted through the esophagus into the stomach.

[4] = drug 1 at 0.1 mg/kg PO, 0.1 mg/kg

Structure (SMILES): Cc1cccc(C(C)c2c[nH]c(=S)[nH]2)c1C (centres unmarked) [Compound of the invention, 4-(1-(2,3-dimethylphenyl)ethyl)-1H-imidazole-2(3H)-thione]
- inhibition of amphetamine-induced rotational behavior (in words) ([1]; nigrostriatal-lesioned animals): inhibit amphetamine-induced rotational behavior
- % DECREASE ROTATIONS (relative to Vehicle+Amphetamine) ([1]; drug 1 at 0.03 mg/kg PO): 68%^⋄
- % DECREASE ROTATIONS (relative to Vehicle+Amphetamine) ([1]; drug 1 at 0.1 mg/kg PO): 68%^⋄
- % DECREASE ROTATIONS (relative to Vehicle+Amphetamine) ([1]; drug 1 at 1 mg/kg PO): 46%^⋄*
- inhibition of increased locomotion associated with psychostimulant administration (in words) ([2]; amphetamine-induced hyperactivity): effectively inhibit increased locomotion
- % DECREASE ACTIVITY REL TO VEH + AMPH ([2]; drug 1 at 0.01 mg/kg PO): 32%*
- TOTAL ACTIVITY POST-AMPHETAMINE (AUC) ([2]; drug 1 at 0.01 mg/kg PO): 9093.3 ± 983.8
- % DECREASE ACTIVITY REL TO VEH + AMPH ([2]; drug 1 at 0.03 mg/kg PO): 72%^⋄
- TOTAL ACTIVITY POST-AMPHETAMINE (AUC) ([2]; drug 1 at 0.03 mg/kg PO): 3783.3 ± 214.2
- % DECREASE ACTIVITY REL TO VEH + AMPH [2, 4]: 63%^⋄ and 72%^⋄
- TOTAL ACTIVITY POST-AMPHETAMINE (AUC) [2, 4]: 5036.0 ± 654.2 and 3759.1 ± 685.4
- inhibition of increased locomotion associated with psychostimulant administration (in words) ([3]; cocaine-induced hyperactivity): effectively inhibit increased locomotion
- % DECREASE ACTIVITY (relative to Vehicle+Cocaine) ([3]; drug 1 at 0.01 mg/kg PO): 53%^⋄
- TOTAL ACTIVITY POST-COCAINE (AUC) ([3]; drug 1 at 0.01 mg/kg PO): 4904 ± 1832.1
- % DECREASE ACTIVITY (relative to Vehicle+Cocaine) ([3]; drug 1 at 0.03 mg/kg PO): 31%*
- TOTAL ACTIVITY POST-COCAINE (AUC) ([3]; drug 1 at 0.03 mg/kg PO): 7260.8 ± 1756.5
- % DECREASE ACTIVITY (relative to Vehicle+Cocaine) ([3]; drug 1 at 0.1 mg/kg PO): 64%^⋄
- TOTAL ACTIVITY POST-COCAINE (AUC) ([3]; drug 1 at 0.1 mg/kg PO): 3754.3 ± 1281.9

Structure (SMILES): O=C(CCCN1CCC(O)(c2ccc(Cl)cc2)CC1)c1ccc(F)cc1 [Haloperidol, reference compound]
- % DECREASE ACTIVITY REL TO VEH + AMPH ([2]; drug 1 at 0.2 mg/kg IP): 91%^⋄*
- TOTAL ACTIVITY POST-AMPHETAMINE (AUC) ([2]; drug 1 at 0.2 mg/kg IP): 1123.16 ± 280.11

Reference: patent US20100216857A1, “METHOD OF TREATING MOTOR DISORDERS WITH 4-(1-(2,3-DIMETHYLPHENYL)ETHYL)-1H-IMIDAZOLE-2(3H)-THIONE” (priority 2007, published 2010)
